Source: paper PMC4750701, “Role of Mitochondrial RNA Polymerase in the Toxicity of Nucleotide Inhibitors of Hepatitis C Virus” (Antimicrobial Agents and Chemotherapy, 2016)

Tests used:
RNA PolI = target: T1, RNA PolI (Rattus norvegicus, UniProt O54889); assay: RNA PolI inhibition assay; format: biochemical; details: NTP analogs 0 to 500 μM; read-out: Mean IC50 ± SD for RNA PolI
T1 construct: complexes were isolated from rat NSN1 cells and HeLa cells, respectively; made in house; host or cells: rat NSN1 cells expressing a FLAG-tagged Pol I subunit
T1 sequence (O54889 whole entry): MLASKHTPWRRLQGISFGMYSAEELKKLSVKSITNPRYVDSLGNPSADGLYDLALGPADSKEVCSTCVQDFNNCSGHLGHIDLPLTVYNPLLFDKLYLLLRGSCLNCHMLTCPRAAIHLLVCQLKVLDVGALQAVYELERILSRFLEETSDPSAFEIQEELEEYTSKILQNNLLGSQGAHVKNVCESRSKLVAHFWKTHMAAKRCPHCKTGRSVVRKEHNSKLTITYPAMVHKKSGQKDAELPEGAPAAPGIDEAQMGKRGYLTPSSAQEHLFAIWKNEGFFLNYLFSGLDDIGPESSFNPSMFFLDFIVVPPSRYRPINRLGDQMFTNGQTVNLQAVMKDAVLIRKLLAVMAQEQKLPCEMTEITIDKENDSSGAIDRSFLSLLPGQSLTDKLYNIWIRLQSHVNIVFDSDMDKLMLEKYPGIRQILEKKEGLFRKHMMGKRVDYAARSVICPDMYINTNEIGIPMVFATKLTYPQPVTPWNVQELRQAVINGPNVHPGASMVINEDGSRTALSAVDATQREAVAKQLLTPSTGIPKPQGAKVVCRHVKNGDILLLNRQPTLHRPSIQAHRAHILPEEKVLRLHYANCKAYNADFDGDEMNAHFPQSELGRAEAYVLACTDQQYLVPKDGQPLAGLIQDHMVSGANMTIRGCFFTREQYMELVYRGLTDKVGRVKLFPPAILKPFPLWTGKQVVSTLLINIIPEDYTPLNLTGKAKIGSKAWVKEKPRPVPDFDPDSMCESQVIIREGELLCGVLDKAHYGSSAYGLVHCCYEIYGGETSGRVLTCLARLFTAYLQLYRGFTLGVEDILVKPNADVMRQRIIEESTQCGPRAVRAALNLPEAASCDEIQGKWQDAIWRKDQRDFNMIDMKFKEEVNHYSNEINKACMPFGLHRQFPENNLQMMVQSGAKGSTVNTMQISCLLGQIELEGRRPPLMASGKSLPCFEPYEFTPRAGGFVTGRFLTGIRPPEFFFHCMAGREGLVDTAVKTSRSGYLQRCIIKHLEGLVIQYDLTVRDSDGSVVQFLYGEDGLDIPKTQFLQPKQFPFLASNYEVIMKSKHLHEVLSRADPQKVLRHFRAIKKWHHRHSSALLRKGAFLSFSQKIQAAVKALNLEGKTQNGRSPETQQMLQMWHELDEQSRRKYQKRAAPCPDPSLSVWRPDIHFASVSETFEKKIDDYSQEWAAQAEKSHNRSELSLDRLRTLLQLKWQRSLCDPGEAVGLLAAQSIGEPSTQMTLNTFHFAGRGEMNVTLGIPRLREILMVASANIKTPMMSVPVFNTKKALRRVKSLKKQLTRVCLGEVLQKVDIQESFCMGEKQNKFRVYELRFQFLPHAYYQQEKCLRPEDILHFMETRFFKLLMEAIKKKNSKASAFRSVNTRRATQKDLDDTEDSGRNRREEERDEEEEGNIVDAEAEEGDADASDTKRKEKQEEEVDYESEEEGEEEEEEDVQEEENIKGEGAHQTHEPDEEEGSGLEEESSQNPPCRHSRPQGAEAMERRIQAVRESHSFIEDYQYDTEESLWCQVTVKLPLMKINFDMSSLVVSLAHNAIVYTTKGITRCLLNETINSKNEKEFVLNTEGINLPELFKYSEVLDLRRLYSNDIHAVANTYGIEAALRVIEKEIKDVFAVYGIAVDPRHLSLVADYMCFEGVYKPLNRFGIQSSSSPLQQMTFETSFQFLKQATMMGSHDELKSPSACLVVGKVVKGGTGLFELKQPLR
Source text: Human DNA polymerase alpha, isolated from HeLa cell extracts, was from CHIMERx (Madison, WI). Recombinant human DNA polymerase beta, expressed in E. coli, was a gift from Zucai Suo at The Ohio State University. Recombinant human DNA polymerase gamma (including both the large subunit and the small subunit) was cloned, expressed, and purified from insect cells by Gilead Sciences (Foster City, CA) ([13]). RNA PolII was purchased as part of the HeLaScribe nuclear extract in vitro transcription system kit from Promega (Madison, WI). The recombinant human PolRMT and the transcription factors mitochondrial transcription factor A (mtTFA) and B2 (mtTFB2) were purchased from Enzymax (Lexington, KY). FLAG epitope-tagged RNA PolI and PolIII complexes were isolated from rat NSN1 cells and HeLa cells, respectively ([17], [18]). The inhibition of DNA polymerases alpha, beta, and gamma, PolRMT, and PolII and the rate of single-nucleotide incorporation by PolRMT have been described previously in detail ([12], [13], [19]). Inhibition of RNA PolI and PolIII was studied using published methods ([20], [21]). All concentrations were final unless noted otherwise. For the RNA PolI inhibition assay, a reaction mixture containing 50 mM HEPES (pH 7.9), 20% glycerol, 100 mM KCl, 1 mM dithiothreitol (DTT), 50 μg/ml calf thymus DNA, 4 mM MgCl2, 5 or 80 μM UTP (0.25 μl of [5,6-^3H]UTP, >25 Ci/mmol; PerkinElmer), 1 mM noncompeting NTP, competing NTP (5 μM for GTP, CTP, and UTP and 25 μM for ATP), and various concentrations (0 to 500 μM) of NTP analogs was preincubated at 30°C for 5 min. […] After incubation at 30°C for 20 min to 1 h, the reactions were terminated by pipetting the mixtures onto DEAE-cellulose discs (DE81; Whatman), and the products analyzed as described previously ([20], [21]).

PC-3 cells = assay: Active triphosphate metabolite in PC-3 cells (LC-MS/MS); format: in vitro ADME, human; details: 10 μM incubation, maximal concentration observed after 48 h during a 5-day incubation
Method: The amount of nucleoside triphosphate was determined from three independent studies by ion-pairing liquid chromatography-tandem mass spectrometry (LC-MS/MS) as previously described ([16]). All compounds were incubated with the cells at 10 μM, except for BMS-986094 and NM107, which were incubated at 0.1 and 1 μM, respectively, due to the cytotoxicity observed at higher concentrations. Triphosphate concentrations for BMS-986094 and 2′CMeC were applied at doses normalized to the concentrations anticipated after a 10 μM incubation for comparison with the other NI. The reported TP levels are the maximal concentrations observed after 48 h during a 5-day incubation.

IC50 (RNA PolI) [µM] | Compound | Mean TP concn ± SD (PC-3 cells)
300 ± 60 | C[C@@]1(O)[C@H](O)[C@@H](COP(=O)(O)OP(=O)(O)OP(=O)(O)O)O[C@H]1n1cnc2c(=O)[nH]c(N)nc21 [2′CMeGTP] | 
 | CC(C)OC(=O)[C@H](C)N[P@](=O)(OC[C@H]1O[C@@](C#N)(c2ccc3c(N)ncnn23)[C@](C)(O)[C@@H]1OC(=O)C(C)C)Oc1ccccc1 [GS-6620] | BLQ
